{
  "source": "paper PMC11340618",
  "about": "(iScience, 2024)",
  "test_system": "intracellular Mtb ΔptpA mutant in THP-1 cells",
  "assay_type": "cell-based, Mycobacterium tuberculosis",
  "data": [
    {"smiles": "O=C(NCc1ccccn1)Nc1cc(N2CC(CCc3ccccc3)CC2=O)ccn1", "note": "(stereo not shown) [P-4423632]", "values": [
      {"measurement": "dose-dependent activity against intracellular Mtb", "value": "not against a ΔptpA mutant"}
    ]}
  ]
}
